Tests used:
Test in all cases: fitness (endpoint OD595 vs no drug) (fraction); higher = more growth
S. aureus Newman = details: main component drawn
Procedure, shortened: (§1)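 Each well of a 384-well plate received 30 µl of culture at OD595 0.01, or 55 µl for S. pneumoniae. TSB, LB Lennox or CY served as media at 37 °C. OD595 was taken every 30 min for 14 h and corrected by subtracting the first reading. Fitness is the optical density at stationary-phase entry divided by the robust mean of no-drug controls, capped at 1.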

B. subtilis 168 = details: main component drawn
Procedure, shortened: as §1

S. aureus DSM 20231 = test system: S. aureus DSM 20231
Procedure, shortened: as §1

S. pneumoniae D39V = test system: S. pneumoniae D39V
Procedure, shortened: as §1

[1] = first compound 37.5 µg/mL, partner 1.5 µg/mL
[2] = first compound 75 µg/mL, partner 1.5 µg/mL

CC[C@H](C)[C@H](N)C1=N[C@H](C(=O)N[C@@H](CC(C)C)C(=O)N[C@H](CCC(=O)O)C(=O)N[C@H](C(=O)N[C@H]2CCCCNC(=O)[C@H](CC(N)=O)NC(=O)[C@@H](CC(=O)O)NC(=O)[C@H](Cc3cnc[nH]3)NC(=O)[C@@H](Cc3ccccc3)NC(=O)[C@H]([C@@H](C)CC)NC(=O)[C@@H](CCCN)NC2=O)[C@@H](C)CC)CS1 [Bacitracin] + CC1(C)S[C@@H]2[C@H](NC(=O)Cc3ccccc3)C(=O)N2[C@H]1C(=O)O [Penicillin G]
fitness (S. aureus Newman; first compound 18.75 µg/mL, partner 0.0195 µg/mL): 0.642
fitness (S. aureus Newman; first compound 18.75 µg/mL, partner 0.039 µg/mL): 0.698
fitness (S. aureus Newman; first compound 18.75 µg/mL, partner 0.078 µg/mL): 0.69
fitness (S. aureus Newman; first compound 37.5 µg/mL, partner 0.0195 µg/mL): 0.35
fitness (S. aureus Newman; first compound 37.5 µg/mL, partner 0.039 µg/mL): 0.2
fitness (S. aureus Newman; first compound 75 µg/mL, partner 0.0195 µg/mL): 0.018
fitness (S. aureus Newman; first compound 75 µg/mL, partner 0.039 µg/mL): 0.0199
fitness (S. aureus Newman; first compound 75 µg/mL, partner 0.078 µg/mL): 0.0358

CC[C@H](C)[C@H](N)C1=N[C@H](C(=O)N[C@@H](CC(C)C)C(=O)N[C@H](CCC(=O)O)C(=O)N[C@H](C(=O)N[C@H]2CCCCNC(=O)[C@H](CC(N)=O)NC(=O)[C@@H](CC(=O)O)NC(=O)[C@H](Cc3cnc[nH]3)NC(=O)[C@@H](Cc3ccccc3)NC(=O)[C@H]([C@@H](C)CC)NC(=O)[C@@H](CCCN)NC2=O)[C@@H](C)CC)CS1 [Bacitracin] + CN(C)[C@@H]1C(O)=C(C(N)=O)C(=O)[C@@]2(O)C(O)=C3C(=O)c4c(O)ccc(Cl)c4[C@@](C)(O)[C@H]3C[C@@H]12 [Chlortetracycline]
fitness (B. subtilis 168; first compound 37.5 µg/mL, partner 0.0475 µg/mL): 0.865
fitness (B. subtilis 168; first compound 37.5 µg/mL, partner 0.095 µg/mL): 0.753
fitness (B. subtilis 168; first compound 75 µg/mL, partner 0.0475 µg/mL): 0.856
fitness (B. subtilis 168; first compound 75 µg/mL, partner 0.095 µg/mL): 0.68
fitness (B. subtilis 168; first compound 150 µg/mL, partner 0.0475 µg/mL): 0.723
fitness (B. subtilis 168; first compound 150 µg/mL, partner 0.095 µg/mL): 0.497
fitness (B. subtilis 168; first compound 150 µg/mL, partner 0.19 µg/mL): 0.0687

CC[C@H](C)[C@H](N)C1=N[C@H](C(=O)N[C@@H](CC(C)C)C(=O)N[C@H](CCC(=O)O)C(=O)N[C@H](C(=O)N[C@H]2CCCCNC(=O)[C@H](CC(N)=O)NC(=O)[C@@H](CC(=O)O)NC(=O)[C@H](Cc3cnc[nH]3)NC(=O)[C@@H](Cc3ccccc3)NC(=O)[C@H]([C@@H](C)CC)NC(=O)[C@@H](CCCN)NC2=O)[C@@H](C)CC)CS1 [Bacitracin] + CO[C@@]12[C@H](COC(N)=O)C3=C(C(=O)C(C)=C(N)C3=O)N1C[C@@H]1N[C@@H]12 [Mitomycin C]
fitness (S. aureus Newman; first compound 18.75 µg/mL, partner 0.0156 µg/mL): 0.56
fitness (S. aureus Newman; first compound 18.75 µg/mL, partner 0.0312 µg/mL): 0.419
fitness (S. aureus Newman; first compound 18.75 µg/mL, partner 0.0625 µg/mL): 0.229
fitness (S. aureus Newman; first compound 37.5 µg/mL, partner 0.0312 µg/mL): 0.0317
fitness (S. aureus Newman; first compound 37.5 µg/mL, partner 0.0625 µg/mL): 0.0144
fitness (S. aureus Newman; first compound 75 µg/mL, partner 0.0156 µg/mL): 0.0457
fitness (S. aureus Newman; first compound 75 µg/mL, partner 0.0312 µg/mL): 0.0152
fitness (S. aureus Newman; first compound 75 µg/mL, partner 0.0625 µg/mL): 0

CC[C@H](C)[C@H](N)C1=N[C@H](C(=O)N[C@@H](CC(C)C)C(=O)N[C@H](CCC(=O)O)C(=O)N[C@H](C(=O)N[C@H]2CCCCNC(=O)[C@H](CC(N)=O)NC(=O)[C@@H](CC(=O)O)NC(=O)[C@H](Cc3cnc[nH]3)NC(=O)[C@@H](Cc3ccccc3)NC(=O)[C@H]([C@@H](C)CC)NC(=O)[C@@H](CCCN)NC2=O)[C@@H](C)CC)CS1 [Bacitracin] + N[C@@H]1CONC1=O [Cycloserine D]
fitness (B. subtilis 168; first compound 37.5 µg/mL, partner 0.125 µg/mL): 0.893
fitness (B. subtilis 168; first compound 37.5 µg/mL, partner 0.25 µg/mL): 0.894
fitness (B. subtilis 168; first compound 37.5 µg/mL, partner 0.5 µg/mL): 0.858
fitness (B. subtilis 168; first compound 75 µg/mL, partner 0.125 µg/mL): 0.89
fitness (B. subtilis 168; first compound 75 µg/mL, partner 0.25 µg/mL): 0.898
fitness (B. subtilis 168; first compound 75 µg/mL, partner 0.5 µg/mL): 0.858
fitness (B. subtilis 168; first compound 150 µg/mL, partner 0.125 µg/mL): 0.737
fitness (S. aureus Newman; first compound 18.75 µg/mL, partner 0.375 µg/mL): 0.761
fitness (S. aureus Newman; first compound 18.75 µg/mL, partner 0.75 µg/mL): 0.761
fitness (S. aureus Newman; first compound 18.75 µg/mL, partner 1.5 µg/mL): 0.74
fitness (S. aureus Newman; first compound 37.5 µg/mL, partner 0.375 µg/mL): 0.282
fitness (S. aureus Newman; first compound 37.5 µg/mL, partner 0.75 µg/mL): 0.28
fitness (S. aureus Newman; [1]): 0.202
fitness (S. aureus Newman; first compound 75 µg/mL, partner 0.375 µg/mL): 0.0299
fitness (S. aureus Newman; first compound 75 µg/mL, partner 0.75 µg/mL): 0.0202
fitness (S. aureus Newman; [2]): 0.0116

CC[C@H](C)[C@H](N)C1=N[C@H](C(=O)N[C@@H](CC(C)C)C(=O)N[C@H](CCC(=O)O)C(=O)N[C@H](C(=O)N[C@H]2CCCCNC(=O)[C@H](CC(N)=O)NC(=O)[C@@H](CC(=O)O)NC(=O)[C@H](Cc3cnc[nH]3)NC(=O)[C@@H](Cc3ccccc3)NC(=O)[C@H]([C@@H](C)CC)NC(=O)[C@@H](CCCN)NC2=O)[C@@H](C)CC)CS1 [Bacitracin] + O=C(O)[C@H]1/C(=C/CO)O[C@@H]2CC(=O)N21 [Clavulanic acid]
fitness (B. subtilis 168; [1]): 0.906
fitness (B. subtilis 168; first compound 37.5 µg/mL, partner 3 µg/mL): 0.86
fitness (B. subtilis 168; first compound 37.5 µg/mL, partner 6 µg/mL): 0.795
fitness (B. subtilis 168; [2]): 0.915
fitness (B. subtilis 168; first compound 75 µg/mL, partner 3 µg/mL): 0.838
fitness (B. subtilis 168; first compound 75 µg/mL, partner 6 µg/mL): 0.734
fitness (S. aureus Newman; first compound 18.75 µg/mL, partner 0.03125 µg/mL, one replicate): 0.682
fitness (S. aureus Newman; first compound 18.75 µg/mL, partner 0.0625 µg/mL, one replicate): 0.673
fitness (S. aureus Newman; first compound 18.75 µg/mL, partner 0.125 µg/mL, one replicate): 0.686
fitness (S. aureus Newman; first compound 37.5 µg/mL, partner 0.03125 µg/mL, one replicate): 0.298
fitness (S. aureus Newman; first compound 37.5 µg/mL, partner 0.0625 µg/mL, one replicate): 0.251
fitness (S. aureus Newman; first compound 37.5 µg/mL, partner 0.125 µg/mL, one replicate): 0.219
fitness (S. aureus Newman; first compound 75 µg/mL, partner 0.03125 µg/mL, one replicate): 0.0064
fitness (S. aureus Newman; first compound 75 µg/mL, partner 0.0625 µg/mL, one replicate): 0.0152
fitness (S. aureus Newman; first compound 75 µg/mL, partner 0.125 µg/mL, one replicate): 0.0264

CC(=O)NC[C@H]1CN(c2ccc(N3CCOCC3)c(F)c2)C(=O)O1 [Linezolid] + CO[C@@]12[C@H](COC(N)=O)C3=C(C(=O)C(C)=C(N)C3=O)N1C[C@@H]1N[C@@H]12 [Mitomycin C]
fitness (S. aureus DSM 20231; first compound 0.125 µg/mL, partner 0.0156 µg/mL): 0.681
fitness (S. aureus DSM 20231; first compound 0.125 µg/mL, partner 0.0312 µg/mL): 0.68
fitness (S. aureus DSM 20231; first compound 0.125 µg/mL, partner 0.0625 µg/mL): 0.531
fitness (S. aureus DSM 20231; first compound 0.25 µg/mL, partner 0.0156 µg/mL): 0.466
fitness (S. aureus DSM 20231; first compound 0.25 µg/mL, partner 0.0312 µg/mL): 0.458
fitness (S. aureus DSM 20231; first compound 0.25 µg/mL, partner 0.0625 µg/mL): 0.296
fitness (S. aureus DSM 20231; first compound 0.5 µg/mL, partner 0.0156 µg/mL): 0.141
fitness (S. aureus DSM 20231; first compound 0.5 µg/mL, partner 0.0312 µg/mL): 0.105
fitness (S. aureus DSM 20231; first compound 0.5 µg/mL, partner 0.0625 µg/mL): 0.0726
fitness (S. aureus DSM 20231; first compound 1 µg/mL, partner 0.0156 µg/mL, one replicate): 0.0176
fitness (S. aureus DSM 20231; first compound 1 µg/mL, partner 0.0312 µg/mL, one replicate): 0.0107
fitness (S. aureus DSM 20231; first compound 1 µg/mL, partner 0.0625 µg/mL, one replicate): 0.0169
fitness (S. pneumoniae D39V; first compound 0.105 µg/mL, partner 0.002 µg/mL): 0.745
fitness (S. pneumoniae D39V; first compound 0.105 µg/mL, partner 0.004 µg/mL): 0.669
fitness (S. pneumoniae D39V; first compound 0.105 µg/mL, partner 0.008 µg/mL): 0.524
fitness (S. pneumoniae D39V; first compound 0.2 µg/mL, partner 0.001075 µg/mL): 0.745
fitness (S. pneumoniae D39V; first compound 0.2 µg/mL, partner 0.00215 µg/mL): 0.733
fitness (S. pneumoniae D39V; first compound 0.2 µg/mL, partner 0.0043 µg/mL): 0.634
fitness (S. pneumoniae D39V; first compound 0.21 µg/mL, partner 0.002 µg/mL): 0.563
fitness (S. pneumoniae D39V; first compound 0.21 µg/mL, partner 0.004 µg/mL): 0.563
fitness (S. pneumoniae D39V; first compound 0.21 µg/mL, partner 0.008 µg/mL): 0.397
fitness (S. pneumoniae D39V; first compound 0.4 µg/mL, partner 0.001075 µg/mL): 0.618
fitness (S. pneumoniae D39V; first compound 0.4 µg/mL, partner 0.00215 µg/mL): 0.626
fitness (S. pneumoniae D39V; first compound 0.4 µg/mL, partner 0.0043 µg/mL): 0.366
fitness (S. pneumoniae D39V; first compound 0.42 µg/mL, partner 0.002 µg/mL): 0.414
fitness (S. pneumoniae D39V; first compound 0.42 µg/mL, partner 0.004 µg/mL): 0.389
fitness (S. pneumoniae D39V; first compound 0.42 µg/mL, partner 0.008 µg/mL): 0.23
fitness (S. pneumoniae D39V; first compound 0.8 µg/mL, partner 0.001075 µg/mL): 0.316
fitness (S. pneumoniae D39V; first compound 0.8 µg/mL, partner 0.00215 µg/mL): 0.323
fitness (S. pneumoniae D39V; first compound 0.8 µg/mL, partner 0.0043 µg/mL): 0.258
